Measurements from US6673940B1, “Compositions and methods relating to cyclic compounds that undergo nucleotide base pair-specific interactions with double-stranded nucleic acids” (California Institute of Technology, priority 1999, dated 2004).

Tests used:
[1] = tested on: 5′-AGTACT-3′ site on 229 bp restriction fragment of pJT8; test: Quantitative DNase I footprint titration, 5′-AGTACT-3′ site; assay type: binding; conditions: for equilibrium association constant Ka at 5′-AGTACT-3′: 10 mM Tris•HCl, 10 mM KCl, 10 mM MgCl2, 5 mM CaCl2, pH 7.0, 22° C., match site for (3), single base pair mis-match for (4)
Experimental: (§1) FIGS. 8A and 8B depict the results quantitative DNase I footprint titration experiments with (a) cyclo-(Γ-Im-Py-Py-Py-(R)^H^2^Nγ-Im-Py-Py-Py) (3) and (b) cyclo-(γ-Im-Py-Py-Py(R)^H^2^Nγ-Py-Py-Py-Py) (4) on the 3′-end labeled 229-bp restriction fragment of pJT8. Lane 1, intact DNA control; lane 2, A reaction; lane 3, DNase I standard, lanes 4-13, 5 pM, 10 pM, 20 pM, 50 pM, 100 pM, 1 nM, 2 nM, 5 nM, and 10 nM of the respective polyamide. The 5′-AGTACT-3′ and 5′-AGTATT-3′ match and mis-match sites for each polyamide were analyzed and are shown on the right side of the respective autoradiograms. All reactions contained 20 kcpm of radiolabeled restriction fragment, 10 mM Tris•HCI (pH 7.0), 10 mM KC1, 10 mM MgCl2, and 5 mM CaCl2.
(§2) As controls, the binding affinities and sequence specificities of the Im-Py-Py-Py-β-Dp (1) unlinked 2:1 dimer and a hairpin analog 1m-Py-Py-Py-(R)^H,Nγ-Im-Py-Py-Py-C3-OH (2) were also studied. An EDTA analogue, cyclo-(γ-Im-Py-Py-Py-(R)^EDTA-FE(II)γ-Py-Py-Py-Py-) (4-E•Fe(II)) was constructed to confirm the binding orientation of cyclic polyamide (4) at its 5′-AGTATT-3′ match and 5′-AGTACT-3′ single base pair mismatch site. All polyamides were synthesized by solid phase methods (see Baird, et al., J. Am. Chem. Soc., vol. 118:6141 (1996), and U.S. Ser. No. 08/607,078 for a description of solid phase synthesis methods for non-cyclic polyamides). Polyamide purity and identity was confirmed by H NMR, MALDI-TOF MS, and analytical HPLC. Precise binding site sizes were determined by MPE•Fe(II) footprinting (see Van Dyke, et al., Proc. Natl. Acad. Sci. U.S.A., vol. 79:5470 (1982), and Van Dyke and Dervan, Science, vol. 225:1122 (1984)), and binding orientation and stoichiometry confirmed by affinity cleaving experiments. See Taylor, et al., Tetrahedron, vol.40:457 (1984), and Dervan, P. B., Science, vol. 232:464 (1986). Equilibrium association constants (Ka) of the polyamides for their respective match and mis-match binding sites were determined by quantitative DNase I footprint titration, as described by Brenowitz, et al., Methods Enzymol., vol. 130:132 (1986), Brenowitz, et al., Proc. Natl. Acad. Sci. U.S.A., vol 83:8462 (1986), and Senear, et al., Biochemistry, vol. 25:7344 (1986).
Quantitative DNase I footprint titrations (10 mm Tris•HCI, 10 mM KCl, 10 MM MgCl2 and 5 mM CaCl2 pH 7.0 and 22° C.) were performed to determine the equilibrium association constants (Ka) of Im-Py-Py-Py-β-Dp (1), Im-Py-Py-Py-(R)^H,NγIm-Py-Py-Py-OH (2), cyclo-(γ-Im-Py-Py-Py-(R)^H,Nγ-Im-Py-Py-Py) (3), and cyclo-(γ-Im-Py-Py-Py-(R)^H,Nγ-Py-Py-Py-Py-) (4) for the 6 bp match and mis-match sites. The results for (3) and (4) are depicted in FIG. 8.

[2] = tested on: 5′-TGTTA-3′ dsDNA target sequence; conditions: Cho et al. 1995; cited from earlier work
[3] = tested on: 229 base pair DNA restriction fragment from the plasmid pJT8 (5′-AGTATT-3′ and 5′-AGTACT-3′ sites); test: Affinity cleavage experiments; assay type: binding; conditions: 100 nM; 20 mM HEPES pH 7.3, 200 mM NaCl, 1 μM Fe(II), 22° C.
Experimental: FIGS. 6A and 6B show the results of affinity cleaving experiments using cyclo-(γ-Im-Py-Py-Py-(R)^EDTA-Fe(II)γ-Py-Py-Py-Py) (4-E•Fe(II)) on the (a) 3′- and (b) 5′-^32P-labeled 229 bp restriction fragment of pJT8. The match and single mis-match sites 5′-AGTATT-3′ and 5′-AGTACT-3′ are shown on the right side of the autoradiograms. The lanes of each gel are described as follows lane 1, intact DNA (control); lane 2, A reaction; lanes 3-7, 100 pM, 1 nM, 10 nM, and 100 nM, and 1 μM polyamide, respectively. All lanes contain 15 kcpm of either 3′- or 5′-radiolabeled DNA, 20 mM HEPES buffer (pH 7.3), 200 mM NaCl, 50 μg/ml glycogen, 5 mM DTT, 1 μM Fe(II), pH 7.0, and were run at 22° C.
FIGS. 7A-7C illustrate the synthesis of cyclo-(γ-Im-Py-Py-Py(R)^EDTA•Fe(II)γPy-Py-Py-Py) (4-E•Fe(II)) from cyclo-(γ-Im-Py-Py-Py-(R)^H2^Nγ-Py-Py-Py-Py) (4) by: (i) EDTA dianhydride (DMSO/NMP, DIEA, 55° C., 15 min); (ii) 0.1 M NaOH (55° C., 10 min). […] Bar heights are proportional to the relative cleavage intensities at each base pair. Shaded and non-shaded circles denote Im and Py carboxamides, respectively. The boxed Fe denotes the EDTA•Fe(II) cleavage moiety. […]

[4] = tested on: 229 base pair restriction fragment of pJT8 (5′-AGTACT-3′ and 5′-AGTATT-3′ sites); test: MPE•Fe(II) footprinting; assay type: binding; conditions: 25 mM HEPES pH 7.3, 200 mM NaCl, 22°; for MPE•Fe(II) footprinting: binding at match site: 10 nM polyamide
Experimental: FIG. 5 illustrates the 229 bp restriction fragment with the relative positions of the match and single base pair mis-match sequences indicated for two 8-ring cyclic polyamides, cyclo-(γ-Im-Py-Py-Py-(R)^H2^Nγ-Im-Py-Py-Py) (3) and cyclo-(γ-Im-Py-Py-Py-(R)^H2^Nγ-Py-Py-Py-Py) (4). MPE•Fe(II) protection patterns of 10 nM cyclo-(γ-Im-Py-Py-Py-(R)^H2^Nγ-Im-Py-Py-Py) (3) and 10 nM cyclo-(γ-Im-Py-Py-Py-(R)^H2^Nγ-Py-Py-Py-Py) (4) are shown by the bar graphs. Bar heights are proportional to the relative protection from cleavage at each base pair. Binding sites determined by MPE•Fe(II) footprinting and quantitated by DNase I footprint titrations are boxed. Autoradiograms of MPE•Fe(II) footprinting experiments using cyclo-(γ-Im-Py-Py-Py-(R)^H^2^Nγ-Im-Py-Py-Py) (3) (left) and cyclo-(γ-Im-Py-Py-Py-(R)^H^2^Nγ-Py-Py-Py-Py) (4) (right) on the 3′ ^32P-labeled 229 bp restriction fragment of pJT8. 5′-AGTATT-3′ and 5′-AGTACT-3′ sites are shown adjacent to the auto radiograms. Lane 1, intact control; lane 2, MPE•Fe(II) reaction; lane 3, A reaction standard; lanes 4-8: 100 pM; 1 nM; 10 nM; 100 nM; and […] polyamide, respectively. All lanes contain 15 kcpm of either 3′ or 5′-radiolabeled DNA, 25 mM HEPES buffer (pH 7.3), 200 mM NaCl, […] glycogen, 5 mM DTT, 0.5 mM MPE•Fe(II), and were run at 22° C.
as §2, with “25:7344 (1986). […]” for “25:7344 (1986).”

[5] = tested on: 5′-AGTATT-3′ site on 229 bp restriction fragment of pJT8; test: Quantitative DNase I footprint titration, 5′-AGTATT-3′ site; assay type: binding; conditions: for equilibrium association constant Ka at 5′-AGTATT-3′: 10 mM Tris•HCl, 10 mM KCl, 10 mM MgCl2, 5 mM CaCl2, pH 7.0, 22° C., match site for (4), single base pair mis-match for (3)
Experimental: as §1
as §2, with “130:132 (1986), Brenowitz, et al., Proc. Natl. Acad. Sci. U.S.A., vol 83:8462 (1986), and Senear, et al., Biochemistry, vol. 25:7344 (1986).” left out

Substance | increase in dsDNA binding affinity relative to unlinked, dimeric polyamide (1) ([1]; 5′-AGTACT-3′ match site) | MPE•Fe(II) footprinting: binding at match site [4] | equilibrium association constant Ka at 5′-AGTACT-3′ [1] | equilibrium association constant Ka at 5′-AGTATT-3′ [5] | specificity for match sequence versus single base pair mismatch sites [2] | MPE•Fe(II) footprinting: binding at single base pair mismatch site [4] | also measured
Im-Py-Py-γ-Py-Py-Py-Dp |  |  |  |  | 20 fold |  | 
cyclo-(Im-Py-Py-γ-Py-Py-Py-γ) |  |  |  |  | 4-17 fold |  | concentration at which the five base pair target 5′-TGTTA-3′ is bound [2]: subnanomolar; higher affinity relative to hairpin analog Im-Py-Py-γ-Py-Py-Py-Dp [2]: 40 fold
cyclo-(γ-Im-Py-Py-Py-(R)^EDTA•Fe(II)γ-Py-Py-Py-Py-) [4-E•Fe(II)] |  |  |  |  |  |  | affinity cleavage pattern at 5′-AGTACT-3′ single base pair mis-match site [3]: minor cleavage loci located 3′ and 5′ adjacent to the single base pair mis-match 5′-AGTACT-3′ site; affinity cleavage pattern at 5′-AGTATT-3′ match site [3]: major cleavage locus proximal to the 3′ side of the 5′-AGTATT-3′ match sequence
cyclo-(γ-Im-Py-Py-Py-(R)^H2Nγ-Py-Py-Py-Py) [polyamide 4] |  | bound to its designated 6 bp match sites | 4.2e+08 M⁻¹ | 3.1e+09 M⁻¹ |  | protected its targeted match site 5′-AGTATT-3′ and the single base pair mismatch site 5′-AGTACT-3′ | preference for match 5′-AGTATT-3′ versus single base pair mis-match 5′-AGTACT-3′ ([5]; ratio of Ka values): 7 fold

Second part, led by results:

increase in dsDNA binding affinity relative to unlinked, dimeric polyamide (1) ([1]; 5′-AGTACT-3′ match site) | MPE•Fe(II) footprinting: binding at match site [4] | equilibrium association constant Ka at 5′-AGTACT-3′ [1] | equilibrium association constant Ka at 5′-AGTATT-3′ [5] | Substance | specificity for match sequence versus single base pair mismatch sites [2] | MPE•Fe(II) footprinting: binding at single base pair mismatch site [4] | also measured
428 fold |  |  |  | Im-Py-Py-Py-(R)^H2Nγ-Im-Py-Py-Py-OH [polyamide 2, reference compound] |  |  | lower affinity than previously described hairpin Im-Py-Py-Py-γ-Im-Py-Py-Py-β-Dp [1]: 4 fold; lower sequence specificity than previously described hairpin Im-Py-Py-Py-γ-Im-Py-Py-Py-β-Dp [1]: 5
3,600 fold | bound to its designated 6 bp match sites | 7.6e+10 M⁻¹ | 1.3e+09 M⁻¹ | cyclo-(γ-Im-Py-Py-Py-(R)^H2Nγ-Im-Py-Py-Py) [polyamide 3] |  | detected only at much higher polyamide concentrations | affinity enhancement relative to hairpin polyamide (2) ([1]; 5′-AGTACT-3′ match site): 8 fold; specificity for match 5′-AGTACT-3′ over single base pair mis-match 5′-AGTATT-3′ ([1]; ratio of Ka values): 55 fold
